Assay results from patent US5741794A, “Heterocyclic sulfonamide derivatives as antagonists of PAF and angiotensin II” (British Biotech Pharmaceuticals Limited, priority 1992, dated 1998).

These compounds were tested against T1, PAF receptor (Homo sapiens, UniProt P25105) (assay: Inhibition of [^3 H]-PAF Receptor Binding (human platelet plasma membrane)). Conditions: 0.5 nM [^3 H]-PAF, 0° C., 1 hour incubation, pH 7.0.
T1 construct: from tissue; host or cells: human platelets (platelet concentrates from a hospital blood bank), lysed platelet membranes
T1 sequence (P25105 whole entry): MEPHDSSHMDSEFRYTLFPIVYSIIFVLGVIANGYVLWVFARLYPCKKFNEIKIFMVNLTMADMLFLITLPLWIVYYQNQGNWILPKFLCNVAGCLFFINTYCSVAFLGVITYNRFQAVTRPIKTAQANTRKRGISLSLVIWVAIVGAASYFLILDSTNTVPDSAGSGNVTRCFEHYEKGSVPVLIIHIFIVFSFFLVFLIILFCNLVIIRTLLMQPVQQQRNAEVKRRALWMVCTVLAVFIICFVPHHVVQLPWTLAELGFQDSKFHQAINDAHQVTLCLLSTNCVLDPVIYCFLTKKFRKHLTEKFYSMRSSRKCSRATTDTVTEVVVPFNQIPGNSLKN
Experimental: Inhibition of [^3 H]-PAF Receptor Binding
The inhibition of [^3 H]-PAF binding to human platelet plasma membrane by compounds of general formula I was determined by isotopic labelling and filtration techniques. Platelet concentrates were obtained from a hospital blood bank. These platelet concentrates (500-2500 mi.) were centrifuged at 800 rpm for 10 minutes in a SORVALL RC3B centrifuge to remove the red blood cells present. (The word SORVALL is a trade mark.) The supernatant was subsequently centrifuged at 3,000 rpm in a SORVALL RC3B centrifuge to pellet the platelets present. The platelet rich pellets were resuspended in a minimum volume of buffer (150 mM NaCl, 10 mM Tris, 2 mM EDTA, pH 7.5) and layered onto Ficoll-Paque gradients, 9 ml platelet concentrate to 2 ml Ficoll, and centrifuged at 1,900 rpm for 15 minutes in a SORVALL RT6000 centrifuge. This step removes the residual red blood cells and other nonspecific material such as lymphocytes from the preparation. The platelets which form a band between the plasma and the Ficoll were removed, resuspended in the above buffer and centrifuged at 3,000 rpm for 10 minutes in a SORVALL RT6000 centrifuge. The pelleted platelets were resuspended in buffer (10 mM Tris, 5 mM MgCl2, 2 mM EDTA, pH 7.0), snap freezed in liquid N2 and allowed to thaw slowly at room temperature in order to lyse the platelets. The latter step was repeated at least 3 times to ensure proper lysis. The lysed platelets were centrifuged at 3,000 rpm for 10 minutes in a SORVALL RT6000 centrifuge and resuspended in buffer. The latter step was repeated twice in order to remove any cytoplasmic proteins which may hydrolyse the platelet activating factor (PAF) receptor. The prepared platelet membranes may be stored at -70° C. After thawing the prepared membranes were centrifuged in a SORVALL RT6000 at 3,000 rpm for 10 minutes and resuspended in assay buffer.
The assay was conducted by preparing a series of Tris-buffered solutions of the selected antagonist of predetermined concentrations. […] Each washed residue was dried under vacuum on a sampling manifold and placed into vials containing 20 ml of OPTIPHASE MP scintillation fluid and the radioactivity counted in a liquid scintillation counter. (The word OPTIPHASE is a trade mark.) Defining the counts for total binding with antagonist from a test sample as "TBA"; the counts for total binding from the control sample C1 as "TB"; and the counts for nonspecific binding from the control sample C2 as "NSB", the percent inhibition of each test antagonist can be determined by the following equation: […]
With `CCc1nccn1Cc1ccc(S(=O)(=O)N(C)[C@@H](CC(C)C)C(=O)OC)cc1` [Example 43, N-Methyl-N-4-(1H-2-ethylimidazolylmethyl)phenylsulphonyl-L-leucine methyl ester] the IC50 was 5 nM.
`CCOC[C@H](CC(C)C)NS(=O)(=O)c1ccc(Cn2cnc3cccnc32)cc1` [Example 45A, N-4-(3H-Imidazo[4,5-b]pyridylmethyl)phenylsulphonyl-L-leucinyl ethyl ether] showed an IC50 of 20 nM.
In the case of `CCOC(=O)[C@H](CC(C)C)NS(=O)(=O)c1ccc(Cn2ccnc2-c2ccccc2)cc1` [Example 1, N-4-(1H-2-Phenylimidazolylmethyl)phenylsulphonyl-L-leucine ethyl ester], the IC50 is reported as 7 nM.
`CCCCc1nc(Cl)c(CO)n1Cc1ccc(S(=O)(=O)N[C@@H](CC(C)C)C(=O)OCC)cc1` [Example 4, N-4-(1H-2-Butyl-4-chloro-5-hydroxymethylimidazolylmethyl)phenylsulphonyl-L-leucine ethyl ester] showed an IC50 of 5 nM.
